Molecular target: T1, human HSP70 (Homo sapiens, UniProt P0DMV8)
T1 construct: gene HSPA1A
Test: citrate synthase thermoprotection (chaperone) assay, […] nm DTNB
Format: biochemical
Conditions: 0.5 µM porcine heart citrate synthase, 1.8 µM HSP, 43 °C, 50 mM HEPES pH 8.0; activity read at 25 °C; inhibitor concentration not stated

T1 sequence (P0DMV8 2-641): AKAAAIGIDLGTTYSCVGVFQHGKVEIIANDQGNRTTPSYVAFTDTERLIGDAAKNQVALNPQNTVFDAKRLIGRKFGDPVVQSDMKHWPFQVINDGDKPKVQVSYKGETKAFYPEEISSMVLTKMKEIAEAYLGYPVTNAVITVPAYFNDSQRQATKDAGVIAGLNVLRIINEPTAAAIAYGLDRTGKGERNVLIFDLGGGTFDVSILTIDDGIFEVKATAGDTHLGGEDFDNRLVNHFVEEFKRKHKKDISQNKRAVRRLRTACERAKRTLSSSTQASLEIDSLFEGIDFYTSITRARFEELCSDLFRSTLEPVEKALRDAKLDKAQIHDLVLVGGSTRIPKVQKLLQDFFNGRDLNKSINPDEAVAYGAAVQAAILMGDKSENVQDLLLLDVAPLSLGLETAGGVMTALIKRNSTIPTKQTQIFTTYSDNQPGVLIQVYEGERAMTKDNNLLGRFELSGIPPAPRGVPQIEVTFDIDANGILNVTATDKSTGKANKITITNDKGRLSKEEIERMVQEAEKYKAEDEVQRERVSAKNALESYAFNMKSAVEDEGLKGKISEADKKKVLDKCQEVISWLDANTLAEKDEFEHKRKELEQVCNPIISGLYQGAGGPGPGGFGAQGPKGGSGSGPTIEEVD

SMILES: NS(=O)(=O)C#Cc1ccccc1 [Pif, pifithrin]
- citrate synthase thermoprotection (chaperone) assay, 412 nm DTNB: Similarly, Pif also inhibits thermos-protection by HSP70

From PMC5827756, “Inhibition of Heat Shock proteins HSP90 and HSP70 induce oxidative stress, suppressing cotton fiber development” (Scientific Reports, 2018)
